{"source": "patent US20190100761A1", "about": "“COMPOSITIONS AND METHODS FOR ENHANCED GENE EXPRESSION AND VIRAL REPLICATION” (priority 2016, published 2019)", "key": {"[1]": {"tested_on": "m^6A levels in total poly(A)+ RNA", "format": "cell-based, human", "conditions": "50 μM DAA, CEM-SS cells, dot blot"}, "IAV": {"tested_on": "IAV", "conditions": "literature report; cited from earlier work"}, "HIV-1 NL4-3": {"tested_on": "HIV-1 NL4-3", "format": "cell-based", "conditions": "50 μM DAA, CEM-SS cells, Western at 72 hpi"}, "HIV-1": {"tested_on": "HIV-1", "conditions": "literature report; cited from earlier work"}, "RSV": {"tested_on": "RSV", "conditions": "literature report; cited from earlier work"}, "[2]": {"tested_on": "m^6A addition to mRNA substrates", "conditions": "by blocking the hydrolysis of S-adenosylhomocysteine; literature; cited from earlier work"}}, "data": [{"compound": "Nc1nccc2c1ncn2[C@@H]1O[C@H](CO)[C@@H](O)[C@H]1O", "note": "[DAA, 3-deazaadenosine]", "values": [{"measurement": "m^6A levels in total poly(A)+ RNA", "setting": "[1]", "result": "significant decline"}, {"measurement": "replication of IAV", "setting": "IAV", "result": "inhibit the replication"}, {"measurement": "replication of HIV-1", "setting": "HIV-1 NL4-3", "result": "effectively inhibited"}, {"measurement": "replication of HIV-1", "setting": "HIV-1", "result": "inhibit the replication"}, {"measurement": "cell growth or viability", "setting": "CEM-SS cells; 50 μM DAA, four day treatment period, CEM-SS cells", "result": "did not reduce cell growth or viability"}, {"measurement": "total level of cellular protein (BCA assay) in HIV-1 infected cultures", "setting": "CEM-SS cells; presence or absence of DAA, CEM-SS cell pellets", "result": "similar"}, {"measurement": "replication of RSV", "setting": "RSV", "result": "inhibit the replication"}, {"measurement": "m^6A addition to mRNA substrates", "setting": "[2]", "result": "block m^6A addition"}]}]}
